Source: ChEMBL document CHEMBL1201861, “Genomics of Drug Sensitity in Cancer screening data, Wellcome Trust Sanger Institute”

What was measured:
Assay in all cases: cells
COR-L23 = assay type: functional, cell-based; details: Homo sapiens;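 note: cell viability assay measuring how strongly compounds suppress growth of COR-L23 cells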
Description: SANGER: Inhibition of human COR-L23 cell growth in a cell viability assay.

Ca9-22 = assay type: functional, cell-based; details: Homo sapiens;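 note: growth inhibition of Ca9-22 cells, read out with a cell viability assay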
Description: SANGER: Inhibition of human Ca9-22 cell growth in a cell viability assay.

Calu-3 = assay type: functional, cell-based; details: Homo sapiens;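 note: growth inhibition of human Calu-3 cells, determined with a cell viability assay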
Description: SANGER: Inhibition of human Calu-3 cell growth in a cell viability assay.

D-336MG = assay type: functional, cell-based, Homo sapiens; details: Homo sapiens, D-336MG
Description: SANGER: Inhibition of human D-336MG cell growth in a cell viability assay.

D-542MG = assay type: functional, cell-based; details: Homo sapiens
Description: SANGER: Inhibition of human D-542MG cell growth in a cell viability assay.

DBTRG-05MG = assay type: functional, cell-based; details: Homo sapiens;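 note: cell viability assay measuring growth inhibition of human DBTRG-05MG cells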
Description: SANGER: Inhibition of human DBTRG-05MG cell growth in a cell viability assay.

Daoy = assay type: functional, cell-based; details: Homo sapiens;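 note: daoy cell growth inhibition, read out as cell viability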
Description: SANGER: Inhibition of human Daoy cell growth in a cell viability assay.

Detroit 562 = assay type: functional, cell-based; details: Homo sapiens;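 note: growth inhibition of human Detroit 562 cells, read out by a cell viability assay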
Description: SANGER: Inhibition of human Detroit562 cell growth in a cell viability assay.

EFM-19 = assay type: functional, cell-based; details: Homo sapiens;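 note: growth inhibition of human EFM-19 cells, measured in a cell viability assay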
Description: SANGER: Inhibition of human EFM-19 cell growth in a cell viability assay.

EW-22 = assay type: functional, cell-based; details: Homo sapiens;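 note: growth inhibition of the EW-22 cell line, measured with a cell viability readout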
Description: SANGER: Inhibition of human EW-22 cell growth in a cell viability assay.

HGC-27 = assay type: functional, cell-based; details: Homo sapiens;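 note: growth inhibition of human HGC-27 cells, read out in a cell viability assay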
Description: SANGER: Inhibition of human HGC-27 cell growth in a cell viability assay.

HMV-2 cell line = assay type: functional, cell-based; details: Homo sapiens;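 note: growth inhibition of HMV-II cells, read out with a cell viability assay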
Description: SANGER: Inhibition of human HMV-II cell growth in a cell viability assay.

HN = assay type: functional, cell-based; details: Homo sapiens
Description: SANGER: Inhibition of human HN cell growth in a cell viability assay.

HSC-3 = assay type: functional, cell-based; details: Homo sapiens
Description: SANGER: Inhibition of human HSC-3 cell growth in a cell viability assay.

HT-1080 = assay type: functional, cell-based; details: Homo sapiens
Description: SANGER: Inhibition of human HT-1080 cell growth in a cell viability assay.

HT-3 = assay type: functional, cell-based; details: Homo sapiens;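 note: growth inhibition measured with a cell viability readout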
Description: SANGER: Inhibition of human HT-3 cell growth in a cell viability assay.

HTC-C3 = assay type: functional, cell-based; details: Homo sapiens;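 note: inhibition of cell growth, read out with a cell viability assay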
Description: SANGER: Inhibition of human HTC-C3 cell growth in a cell viability assay.

KMOE-2 = assay type: functional, cell-based, Homo sapiens; details: Homo sapiens, KMOE-2;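 note: growth inhibition of human KMOE-2 cells, read out with a cell viability assay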
Description: SANGER: Inhibition of human KMOE-2 cell growth in a cell viability assay.

KYSE-180 = assay type: functional, cell-based; details: Homo sapiens;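 note: growth inhibition of KYSE-180 cells, read out with a cell viability assay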
Description: SANGER: Inhibition of human KYSE-180 cell growth in a cell viability assay.

MG-63 = assay type: functional, cell-based; details: Homo sapiens;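 note: growth inhibition of human MG-63 cells, read out with a cell viability assay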
Description: SANGER: Inhibition of human MG-63 cell growth in a cell viability assay.

MKN-45 = assay type: functional, cell-based; details: Homo sapiens;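 note: growth inhibition of human MKN-45 cells, measured with a cell viability assay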
Description: SANGER: Inhibition of human MKN45 cell growth in a cell viability assay.

MeWo = assay type: functional, cell-based; details: Homo sapiens;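 note: growth inhibition of MeWo cells, determined by a cell viability readout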
Description: SANGER: Inhibition of human Mewo cell growth in a cell viability assay.

NB14 = assay type: functional, cell-based, Homo sapiens; details: Homo sapiens, NB14;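 note: growth inhibition of NB14 cells measured with a cell viability assay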
Description: SANGER: Inhibition of human NB14 cell growth in a cell viability assay.

NCI-H1437 = assay type: functional, cell-based; details: Homo sapiens;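 note: growth inhibition of human NCI-H1437 cells, read out by a cell viability assay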
Description: SANGER: Inhibition of human NCI-H1437 cell growth in a cell viability assay.

NCI-H1703 = assay type: functional, cell-based; details: Homo sapiens;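 note: growth inhibition of NCI-H1703 cells, read out via a cell viability assay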
Description: SANGER: Inhibition of human NCI-H1703 cell growth in a cell viability assay.

NCI-H1755 = assay type: functional, cell-based; details: Homo sapiens;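 note: cell viability readout used to measure growth inhibition of NCI-H1755 cells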
Description: SANGER: Inhibition of human NCI-H1755 cell growth in a cell viability assay.

NCI-H1793 = assay type: functional, cell-based; details: Homo sapiens;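 note: cell growth inhibition, read out by a cell viability assay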
Description: SANGER: Inhibition of human NCI-H1793 cell growth in a cell viability assay.

NCI-H2009 = assay type: functional, cell-based; details: Homo sapiens;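 note: cell viability assay measuring inhibition of NCI-H2009 cell growth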
Description: SANGER: Inhibition of human NCI-H2009 cell growth in a cell viability assay.

NCI-H2030 = assay type: functional, cell-based; details: Homo sapiens;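 note: growth inhibition of human NCI-H2030 cells, read out by a cell viability assay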
Description: SANGER: Inhibition of human NCI-H2030 cell growth in a cell viability assay.

NCI-H2228 = assay type: functional, cell-based; details: Homo sapiens;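 note: growth inhibition of human NCI-H2228 cells, read out by a cell viability assay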
Description: SANGER: Inhibition of human NCI-H2228 cell growth in a cell viability assay.

NCI-H2347 = assay type: functional, cell-based; details: Homo sapiens;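 note: growth inhibition of the cell line, read out with a cell viability assay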
Description: SANGER: Inhibition of human NCI-H2347 cell growth in a cell viability assay.

PFSK-1 = assay type: functional, cell-based; details: Homo sapiens;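 note: cell viability assay measuring how strongly compounds suppress growth of human PFSK-1 cells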
Description: SANGER: Inhibition of human PFSK-1 cell growth in a cell viability assay.

RD = assay type: functional, cell-based; details: Homo sapiens
Description: SANGER: Inhibition of human RD cell growth in a cell viability assay.

RERF-LC-MS = assay type: functional, cell-based; details: Homo sapiens;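 note: growth inhibition of human RERF-LC-MS cells, read out by a cell viability assay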
Description: SANGER: Inhibition of human RERF-LC-MS cell growth in a cell viability assay.

RO82-W-1 = assay type: functional, cell-based; details: Homo sapiens;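 note: growth inhibition of human RO82-W-1 cells, measured with a cell viability assay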
Description: SANGER: Inhibition of human RO82-W-1 cell growth in a cell viability assay.

RPMI-2650 = assay type: functional, cell-based; details: Homo sapiens
Description: SANGER: Inhibition of human RPMI-2650 cell growth in a cell viability assay.

S-117 = assay type: functional, cell-based; details: Homo sapiens
Description: SANGER: Inhibition of human S-117 cell growth in a cell viability assay.

SK-LU-1 = assay type: functional, cell-based; details: Homo sapiens;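 note: cell viability assay measuring growth inhibition of human SK-LU-1 cells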
Description: SANGER: Inhibition of human SK-LU-1 cell growth in a cell viability assay.

SK-MEL-24 = assay type: functional, cell-based; details: Homo sapiens;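 note: growth inhibition read out by a cell viability assay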
Description: SANGER: Inhibition of human SK-MEL-24 cell growth in a cell viability assay.

SNU-387 = assay type: functional, cell-based; details: Homo sapiens
Description: SANGER: Inhibition of human SNU-387 cell growth in a cell viability assay.

SW13 = assay type: functional, cell-based; details: Homo sapiens;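 note: IC50 is inhibition of SW13 cell growth, read out with a cell viability assay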
Description: SANGER: Inhibition of human SW13 cell growth in a cell viability assay.

SW1417 = assay type: functional, cell-based; details: Homo sapiens;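 note: growth inhibition of human SW1417 cells, read out with a cell viability assay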
Description: SANGER: Inhibition of human SW1417 cell growth in a cell viability assay.

SW626 = assay type: functional, cell-based; details: Homo sapiens;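 note: growth inhibition of SW626 cells, measured with a cell viability assay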
Description: SANGER: Inhibition of human SW626 cell growth in a cell viability assay.

T98G = assay type: functional, cell-based; details: Homo sapiens;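 note: growth inhibition of T98G cells, read out by a cell viability assay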
Description: SANGER: Inhibition of human T98G cell growth in a cell viability assay.

A673 = assay type: functional, cell-based; details: Homo sapiens;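 note: growth inhibition of human A673 cells, read out through a cell viability assay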
Description: SANGER: Inhibition of human A673 cell growth in a cell viability assay.

AGS = assay type: functional, cell-based; details: Homo sapiens;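 note: growth inhibition of AGS cells, determined with a cell viability assay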
Description: SANGER: Inhibition of human AGS cell growth in a cell viability assay.

ASPC1 = assay type: functional, cell-based; details: Homo sapiens;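 note: growth inhibition of AsPC-1 cells, read out with a cell viability assay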
Description: SANGER: Inhibition of human AsPC-1 cell growth in a cell viability assay.

BFTC-905 = assay type: functional, cell-based; details: Homo sapiens
Description: SANGER: Inhibition of human BFTC-905 cell growth in a cell viability assay.

BFTC-909 = assay type: functional, cell-based; details: Homo sapiens
Description: SANGER: Inhibition of human BFTC-909 cell growth in a cell viability assay.

CAL-120 = assay type: functional, cell-based; details: Homo sapiens;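 note: cell growth inhibition, read out as cell viability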
Description: SANGER: Inhibition of human CAL-120 cell growth in a cell viability assay.

CAL-85-1 = assay type: functional, cell-based; details: Homo sapiens;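 note: growth inhibition of human CAL-85-1 cells, read out with a cell viability assay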
Description: SANGER: Inhibition of human CAL-85-1 cell growth in a cell viability assay.

CAPAN-1 = assay type: functional, cell-based; details: Homo sapiens;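 note: growth suppression of CAPAN-1 cells, read out by a cell viability assay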
Description: SANGER: Inhibition of human CAPAN-1 cell growth in a cell viability assay.

Measured: IC50

CC1=C(/C=C/C(C)=C/C=C/C(C)=C/C(=O)O)C(C)(C)CCC1 [TRETINOIN]
7.13 µM: NB14
6.7 µM: KYSE-180
> 10000 nM: HMV-2 cell line | AGS
> 10 µM: all other assays above

NC(=O)c1ccc(N(C(N)=O)c2c(F)cccc2F)nc1-c1ccc(F)cc1F [VX-702]
1770 nM: HMV-2 cell line
153 nM: AGS
> 2 µM: all other assays above
